Patent US20250205286A1, “COMPOSITIONS, REAGENTS, AND METHODS FOR TREATING PITT-HOPKINS SYNDROME” (Vitro Biopharma, Inc., priority 2022, published 2025)

Tested on: Hsp70 secretion from UC-MSCs
Test: Hsp70 secretion from cultured UC-MSCs exposed to LiCl (immunoassay)
Type: cell-based, human
Details: 200 micromolar LiCl; medium collected 96 hours later; p<0.05
Experimental: FIG. 7 is a graph showing the secretion of heat shock protein 70 (Hsp70) from cultured UC-MSCs (e.g., ALLORX STEM CELLS®) and the effects of increasing concentrations of lithium chloride (LiCl) on Hsp70 secretion.
UC-MSCs were plated at 5,000 cells/cm^2 in T-25 flasks and cultured until confluence was 80-90%. The cells were then exposed to the LiCl concentrations shown on the x axis and the medium was collected 96 hours later and assayed by immunoassay for Hsp70. […] Since Hsp70 mediates cellular protection as a chaperone molecule and through antiapoptotic mechanisms (refs), its enhanced secretion from MSCs (possible through inclusion in exosomes Ref) may reflect mechanisms of stem cell activation by GSK-3p inhibition in conjunction with HDAC inhibition (e.g., see U.S. application Ser. No. 17/239,513 which is incorporated by reference). This effect is a possible mode of action of the therapy proposed by the present disclosure.

[Cl-].[Li+] [LiCl, lithium chloride]
secretion of Hsp70: significant increased secretion
